Assay results as given in PubChem BioAssay AID624439 (The Scripps Research Institute Molecular Screening Center, 2012).
Active and inactive are the calls of the source.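 The calls were made as follows: active = compounds with an IC50 below 50 µM against the phosphatase; inactive = IC50 at 50 µM or above.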

Target: Serine/threonine-protein phosphatase 5 (Homo sapiens) (UniProt P53041)
Assay: inhibition of PP5 catalytic domain, physiologic substrate – biochemical, radiolabeled phosphohistone, dose response, round 5, orthogonal assay, late-stage follow-up (AID 624439)
Details: purified PP5c, 33P-phosphohistone dephosphorylation, scintillation

Sequence of Serine/threonine-protein phosphatase 5 (Homo sapiens) (P53041 whole entry, looked up, the tested form may be a part): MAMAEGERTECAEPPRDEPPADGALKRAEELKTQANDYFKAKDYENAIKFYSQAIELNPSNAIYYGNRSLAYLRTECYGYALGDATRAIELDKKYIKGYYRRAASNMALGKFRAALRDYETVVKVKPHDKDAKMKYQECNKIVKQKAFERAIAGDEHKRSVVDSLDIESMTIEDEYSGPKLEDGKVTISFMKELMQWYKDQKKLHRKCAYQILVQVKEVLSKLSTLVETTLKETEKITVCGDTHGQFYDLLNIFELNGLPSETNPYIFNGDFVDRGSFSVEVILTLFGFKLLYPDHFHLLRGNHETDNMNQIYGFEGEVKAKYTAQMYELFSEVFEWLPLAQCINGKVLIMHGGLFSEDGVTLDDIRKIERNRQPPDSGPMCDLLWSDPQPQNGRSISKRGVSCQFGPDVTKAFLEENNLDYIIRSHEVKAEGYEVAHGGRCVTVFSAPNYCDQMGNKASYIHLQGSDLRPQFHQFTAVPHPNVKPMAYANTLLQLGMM

Row | SMILES | IC50
1 | O=C(O)c1n[nH]nc1-c1ccccc1F | 42.2 µM
2 | CC(C)Oc1ccccc1-c1n[nH]nc1C(=O)O | 17.1 µM
3 | O=C(O)c1n[nH]nc1-c1cccc(F)c1 | inactive
4 | COc1ccccc1-c1n[nH]nc1C(=O)O | 29.7 µM

Results, then the compound that gave them:

Row | IC50 | SMILES
5 | inactive | O=C(O)c1n[nH]nc1-c1ccc(F)cc1
6 | inactive | COc1ccc(-c2n[nH]nc2C(=O)O)cc1
7 | 31.4 µM | O=C(O)c1n[nH]nc1-c1ccccc1O
8 | 49 µM | COc1cccc(-c2n[nH]nc2C(=O)O)c1
